Experimental findings from the supplement of paper PMC10307832 are described below.

Common to all, as to test: relative viability (nuclei count vs DMSO), 5 days (fraction); higher = more cells survive
Compound in the assay “SGI-1776 + Dasatinib”: CN1CCC(CNc2ccc3ncc(-c4cccc(OC(F)(F)F)c4)n3n2)CC1 [SGI-1776] + Cc1nc(Nc2ncc(C(=O)Nc3c(C)cccc3Cl)s2)cc(N2CCN(CCO)CC2)n1 [Dasatinib] (partner 0.075 µM)
In outline: (§1)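 Cells from lung cancer lines were seeded into 1536-well plates and, one day later, dosed by pin tool. Treatments were either a single drug or a fixed dose of an anchor drug with five library-drug doses (not always all listed) in √10 steps. After 5 days, nuclei were stained in a one-step fixation (final 0.05% Triton X-100, 1% formaldehyde, 1 ug/ml Hoechst) and counted on 4× images, and relative viability is the treated-to-vehicle nuclei ratio, as the median of duplicate plates.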

Compound in the assay “SGI-1776 + Phenformin”: CN1CCC(CNc2ccc3ncc(-c4cccc(OC(F)(F)F)c4)n3n2)CC1 [SGI-1776] + N=C(N)NC(=N)NCCc1ccccc1 [Phenformin] (partner 250 µM)
The procedure, abridged:
as §1

Compound in the assay “SGI-1776 + AZD7762”: CN1CCC(CNc2ccc3ncc(-c4cccc(OC(F)(F)F)c4)n3n2)CC1 [SGI-1776] + NC(=O)Nc1cc(-c2cccc(F)c2)sc1C(=O)N[C@H]1CCCNC1 [AZD7762] (partner 0.2 µM)
In outline: as §1

Compound in the assay “Entinostat + Decitabine”: Nc1ccccc1NC(=O)c1ccc(CNC(=O)OCc2cccnc2)cc1 [Entinostat] + Nc1ncn([C@H]2C[C@H](O)[C@@H](CO)O2)c(=O)n1 [Decitabine] (partner 2 µM)
The procedure, abridged: as §1

Consider NCI-H1395, for which the relative viability came out at 0.381 with SGI-1776 + Dasatinib (first compound 0.08 µM); 0.379 with SGI-1776 + Dasatinib (first compound 0.8 µM); 0.394 with SGI-1776 + Dasatinib (first compound 2.53 µM); 0.373 with SGI-1776 + Dasatinib (first compound 8 µM); 0.464 with SGI-1776 + Phenformin (first compound 0.08 µM); 0.434 in the assay with SGI-1776 + Phenformin (first compound 0.8 µM). The relative viability is 0.46 in the assay with SGI-1776 + Phenformin (first compound 2.53 µM); 0.413 with SGI-1776 + Phenformin (first compound 8 µM); 0.424 with SGI-1776 + AZD7762 (first compound 0.08 µM); 0.432 with SGI-1776 + AZD7762 (first compound 0.8 µM); 0.393 in the assay with SGI-1776 + AZD7762 (first compound 2.53 µM); 0.402 in the assay with SGI-1776 + AZD7762 (first compound 8 µM). Besides, the relative viability with Entinostat + Decitabine (first compound 0.02 µM) is 0.693; with Entinostat + Decitabine (first compound 0.06325 µM), 0.726; in the assay with Entinostat + Decitabine (first compound 0.2 µM), 0.626; with Entinostat + Decitabine (first compound 0.6325 µM) it was 0.556; with Entinostat + Decitabine (first compound 2 µM), 0.492.

For the cell line NCI-H1437, the relative viability with SGI-1776 + Dasatinib (first compound 0.08 µM) is 0.335; with SGI-1776 + Dasatinib (first compound 0.8 µM), 0.427; with SGI-1776 + Dasatinib (first compound 2.53 µM), 0.298; with SGI-1776 + Dasatinib (first compound 8 µM), 0.242; with SGI-1776 + Phenformin (first compound 0.08 µM) it was 0.322; with SGI-1776 + Phenformin (first compound 0.8 µM), 0.259. The relative viability with SGI-1776 + Phenformin (first compound 2.53 µM) was 0.296; with SGI-1776 + Phenformin (first compound 8 µM), 0.297; in the assay with SGI-1776 + AZD7762 (first compound 0.08 µM), 1.11; with SGI-1776 + AZD7762 (first compound 0.8 µM), 1.13; in the assay with SGI-1776 + AZD7762 (first compound 2.53 µM) it was 1.07; with SGI-1776 + AZD7762 (first compound 8 µM), 1.02. Besides, the relative viability with Entinostat + Decitabine (first compound 0.02 µM) amounted to 0.522; in the assay with Entinostat + Decitabine (first compound 0.06325 µM) it was 0.436; in the assay with Entinostat + Decitabine (first compound 0.2 µM), 0.357; in the assay with Entinostat + Decitabine (first compound 0.6325 µM), 0.267; with Entinostat + Decitabine (first compound 2 µM), 0.217.

As to NCI-H1651, the relative viability came to 0.535 with SGI-1776 + Dasatinib (first compound 0.08 µM); 0.378 with SGI-1776 + Dasatinib (first compound 0.8 µM); 0.381 with SGI-1776 + Dasatinib (first compound 2.53 µM); 0.312 with SGI-1776 + Dasatinib (first compound 8 µM); 0.386 with SGI-1776 + Phenformin (first compound 0.08 µM); 0.396 with SGI-1776 + Phenformin (first compound 0.8 µM). In addition, the relative viability with SGI-1776 + Phenformin (first compound 2.53 µM) came to 0.311; with SGI-1776 + Phenformin (first compound 8 µM), 0.251; in the assay with SGI-1776 + AZD7762 (first compound 0.08 µM), 0.537; in the assay with SGI-1776 + AZD7762 (first compound 0.8 µM), 0.519; with SGI-1776 + AZD7762 (first compound 2.53 µM), 0.494; with SGI-1776 + AZD7762 (first compound 8 µM), 0.419. Besides, the relative viability was 0.666 in the assay with Entinostat + Decitabine (first compound 0.02 µM); 0.824 with Entinostat + Decitabine (first compound 0.06325 µM); 0.609 in the assay with Entinostat + Decitabine (first compound 0.2 µM); 0.558 with Entinostat + Decitabine (first compound 0.6325 µM); 0.19 with Entinostat + Decitabine (first compound 2 µM).

As to NCI-H1666, the relative viability in the assay with SGI-1776 + Dasatinib (first compound 0.08 µM) was 0.822; with SGI-1776 + Dasatinib (first compound 0.8 µM) it was 0.791; in the assay with SGI-1776 + Dasatinib (first compound 2.53 µM), 0.75; with SGI-1776 + Dasatinib (first compound 8 µM) it was 0.711; with SGI-1776 + Phenformin (first compound 0.08 µM), 0.615; in the assay with SGI-1776 + Phenformin (first compound 0.8 µM), 0.544. The relative viability with SGI-1776 + Phenformin (first compound 2.53 µM) was found to be 0.527; with SGI-1776 + Phenformin (first compound 8 µM), 0.502; with SGI-1776 + AZD7762 (first compound 0.08 µM) it was 0.945; with SGI-1776 + AZD7762 (first compound 0.8 µM), 0.873; with SGI-1776 + AZD7762 (first compound 2.53 µM), 0.862; with SGI-1776 + AZD7762 (first compound 8 µM), 0.834. Besides, the relative viability with Entinostat + Decitabine (first compound 0.02 µM) came out at 0.887; with Entinostat + Decitabine (first compound 0.06325 µM) it was 0.793; with Entinostat + Decitabine (first compound 0.2 µM), 0.707; in the assay with Entinostat + Decitabine (first compound 0.6325 µM), 0.669; in the assay with Entinostat + Decitabine (first compound 2 µM), 0.511.

Take NCI-H1734: the relative viability in the assay with SGI-1776 + Dasatinib (first compound 0.08 µM) came to 0.55; with SGI-1776 + Dasatinib (first compound 0.8 µM) it was 0.426; in the assay with SGI-1776 + Dasatinib (first compound 2.53 µM), 0.441; with SGI-1776 + Dasatinib (first compound 8 µM) it was 0.434; in the assay with SGI-1776 + Phenformin (first compound 0.08 µM) it was 0.41; with SGI-1776 + Phenformin (first compound 0.8 µM), 0.366. The relative viability with SGI-1776 + Phenformin (first compound 2.53 µM) is 0.394; in the assay with SGI-1776 + Phenformin (first compound 8 µM), 0.284; in the assay with SGI-1776 + AZD7762 (first compound 0.08 µM), 0.616; in the assay with SGI-1776 + AZD7762 (first compound 0.8 µM), 0.687; with SGI-1776 + AZD7762 (first compound 2.53 µM), 0.654; with SGI-1776 + AZD7762 (first compound 8 µM), 0.568. Also, the relative viability stood at 0.555 with Entinostat + Decitabine (first compound 0.02 µM); 0.483 with Entinostat + Decitabine (first compound 0.06325 µM); 0.464 with Entinostat + Decitabine (first compound 0.2 µM); 0.451 in the assay with Entinostat + Decitabine (first compound 0.6325 µM); 0.298 with Entinostat + Decitabine (first compound 2 µM).

Turning to NCI-H1755, the relative viability with SGI-1776 + Dasatinib (first compound 0.08 µM) was determined as 0.454; in the assay with SGI-1776 + Dasatinib (first compound 0.8 µM) it was 0.437; with SGI-1776 + Dasatinib (first compound 2.53 µM), 0.351; with SGI-1776 + Dasatinib (first compound 8 µM), 0.287; with SGI-1776 + Phenformin (first compound 0.08 µM), 0.617; in the assay with SGI-1776 + Phenformin (first compound 0.8 µM), 0.584. In addition, the relative viability is 0.576 with SGI-1776 + Phenformin (first compound 2.53 µM); 0.516 in the assay with SGI-1776 + Phenformin (first compound 8 µM); 0.459 with SGI-1776 + AZD7762 (first compound 0.08 µM); 0.575 in the assay with SGI-1776 + AZD7762 (first compound 0.8 µM); 0.463 with SGI-1776 + AZD7762 (first compound 2.53 µM); 0.378 with SGI-1776 + AZD7762 (first compound 8 µM). Besides, the relative viability is 0.681 in the assay with Entinostat + Decitabine (first compound 0.02 µM); 0.71 with Entinostat + Decitabine (first compound 0.06325 µM); 0.583 with Entinostat + Decitabine (first compound 0.2 µM); 0.494 in the assay with Entinostat + Decitabine (first compound 0.6325 µM); 0.45 in the assay with Entinostat + Decitabine (first compound 2 µM).

Take NCI-H1792: the relative viability in the assay with SGI-1776 + Dasatinib (first compound 0.08 µM) worked out at 0.781; with SGI-1776 + Dasatinib (first compound 0.8 µM), 0.742; with SGI-1776 + Dasatinib (first compound 2.53 µM), 0.637; with SGI-1776 + Dasatinib (first compound 8 µM), 0.491; with SGI-1776 + Phenformin (first compound 0.08 µM), 0.335; with SGI-1776 + Phenformin (first compound 0.8 µM) it was 0.257. For the same cell line, the relative viability with SGI-1776 + Phenformin (first compound 2.53 µM) came to 0.135; with SGI-1776 + Phenformin (first compound 8 µM), 0.257; in the assay with SGI-1776 + AZD7762 (first compound 0.08 µM), 0.587; in the assay with SGI-1776 + AZD7762 (first compound 0.8 µM) it was 0.786; with SGI-1776 + AZD7762 (first compound 2.53 µM), 0.768; in the assay with SGI-1776 + AZD7762 (first compound 8 µM), 0.438. The relative viability with Entinostat + Decitabine (first compound 0.02 µM) came out at 0.613; in the assay with Entinostat + Decitabine (first compound 0.06325 µM) it was 0.505; with Entinostat + Decitabine (first compound 0.2 µM) it was 0.48; in the assay with Entinostat + Decitabine (first compound 0.6325 µM), 0.354; in the assay with Entinostat + Decitabine (first compound 2 µM), 0.196.

In the case of NCI-H1793, the relative viability was determined as 0.395 with SGI-1776 + Dasatinib (first compound 0.08 µM); 0.332 with SGI-1776 + Dasatinib (first compound 0.8 µM); 0.382 in the assay with SGI-1776 + Dasatinib (first compound 2.53 µM); 0.405 with SGI-1776 + Dasatinib (first compound 8 µM); 0.389 with SGI-1776 + Phenformin (first compound 0.08 µM); 0.219 in the assay with SGI-1776 + Phenformin (first compound 0.8 µM). In addition, the relative viability in the assay with SGI-1776 + Phenformin (first compound 2.53 µM) worked out at 0.262; with SGI-1776 + Phenformin (first compound 8 µM), 0.249; with SGI-1776 + AZD7762 (first compound 0.08 µM), 0.558; with SGI-1776 + AZD7762 (first compound 0.8 µM), 0.408; in the assay with SGI-1776 + AZD7762 (first compound 2.53 µM), 0.32; with SGI-1776 + AZD7762 (first compound 8 µM), 0.252. The relative viability worked out at 0.519 with Entinostat + Decitabine (first compound 0.02 µM); 0.56 with Entinostat + Decitabine (first compound 0.06325 µM); 0.383 with Entinostat + Decitabine (first compound 0.2 µM); 0.256 with Entinostat + Decitabine (first compound 0.6325 µM); 0.253 with Entinostat + Decitabine (first compound 2 µM).
